# Measurements reported in publication PMC7602288, “Characterization of Novel Dipeptidyl Peptidase-IV Inhibitory Peptides from Soft-Shelled Turtle Yolk Hydrolysate Using Orthogonal Bioassay-Guided Fractionations Coupled with In Vitro and In Silico Study” (Pharmaceuticals, 2020).
# Read-outs that look alike come from different tables or passages of the source. Peptide text beside a SMILES is read from it.
# Experiments:
# [1] = target: T1, human Dipeptidyl-peptidase (DPP-IV) (Homo sapiens, UniProt P27487); experiment: Stability of synthesized peptides against DPP-IV (pre-incubation experiment, LC-MS and inhibition assay); type: biochemical; conditions: peptide 500 µM; for DPP-IV inhibitory activity, after pre-incubation: after pre-incubation with DPP-IV 3 h at 37 °C
# T1 construct: purchased Sigma Chemical Co. (St. Louis, MO, USA)
# Experimental: The synthetic peptide was pre-incubated with DPP-IV to determine stability against DPP-IV. […] According to the previous method by Nongonierma et al. with slight modification, 50 μL of peptides (500 µM) dissolved in 1% DMSO were pre-incubated with 100 μL of DPP-IV (1 U/μL) in DPP-IV buffer at 37 °C for 3 h. Consequently, 75 µL of pre-incubation mixture was combined with 25 µL of 2 mM NaOH and 25 µL of 1.6 mM Gly-Pro-p-nitroanilide, and further pre-incubated at 37 °C for 10 min. The mixture was added with 25 µL of DPP-IV buffer and then incubated at 37 °C for 60 min. The reaction was ended using 100 µL of 1M sodium acetate at pH 4.0. The absorbance of each reaction was measured at 405 nm in a SpectraMax 190 Microplate Reader (Molecular Devices, LLC, San Jose, CA, USA) to determine DPP-IV inhibitory activity of peptide after a pre-incubation period. The remaining 75 µL of the original mixture was heat-inactivated at 95 °C for 10 min to end enzyme activity after which it was injected into LC-MS to confirm the stability of the peptide.
# [2] = target: T1, human Dipeptidyl-peptidase (DPP-IV); experiment: DPP-IV inhibitory assay (Gly-Pro-p-nitroanilide substrate, absorbance 405 nm); type: biochemical; conditions: synthetic peptide; nonlinear regression, five concentrations
# Description: Chinese soft-shelled turtle eggs were collected from Pingtung City, Taiwan. Pepsin (from porcine gastric mucosa), trypsin (from bovine pancreas), α-chymotrypsin (from bovine pancreas, thermolysin (from Geobacillus stearothermophilus), human Dipeptidyl-peptidase (DPP-IV), Gly-Pro-p-nitroaniline (GP_pNA), Iodoacetamide (IAM), and linagliptin were purchased from Sigma Chemical Co. (St. Louis, MO, USA). Formic acid (FA), acetonitrile (ACN), and ammonium bicarbonate (ABC) were acquired from J.T. Baker (Phillipsburg, NJ, USA). Sequencing grade modified trypsin was purchased from Promega (Madison, WI, USA). Trifluoroacetic acid (TFA) was acquired from Alfa Aesar (Lancashire, UK), and Wang resin was obtained from Cleo Salus (Louisville, KY, USA). Deionized water (ddH2O) was collected using the PURELAB® water purification system from ELGA LabWater (Lane End, High Wycombe, UK). All other chemicals used in this study were of reagent grades. HyperSep Retain PEP Polymeric material was purchased from Thermo Scientific Inc. Molecular weight cut-off (3 kDa MWCO) was procured from Millipore (Bedford, MA, USA).
# The DPP-IV inhibitory assay was analyzed in triplicate according to the method of Lacroix and Li-Chan using 96-well microplates with slight modification. […] Linagliptin was used as a reference inhibitor in this experiment. All the reagents and samples were dissolved in 1% DMSO buffer. […] The blank and negative control contained 25 µL of 1% DMSO and 25 µL of DPP-IV buffer. The reaction was activated by 50 µL of DPP-IV (1 U/µL) while the blank sample used 50 µL of DPP-IV buffer instead. After 1 h at 37 °C, the mixture was terminated using 100 µL of 1M sodium acetate buffer at pH 4.0. A concentration of peptide that can inhibit fifty percentage of DPP-IV activity was defined as the IC50 value of DPP-IV inhibition peptide. The IC50 value was determined using different concentrations of inhibitor by nonlinear regression of Graphpad Prism 5.0 (GraphPad Software, Inc., La Jolla, CA, USA).
# DPP-IV = conditions: cited from earlier work
# T1 sequence (P27487 whole entry): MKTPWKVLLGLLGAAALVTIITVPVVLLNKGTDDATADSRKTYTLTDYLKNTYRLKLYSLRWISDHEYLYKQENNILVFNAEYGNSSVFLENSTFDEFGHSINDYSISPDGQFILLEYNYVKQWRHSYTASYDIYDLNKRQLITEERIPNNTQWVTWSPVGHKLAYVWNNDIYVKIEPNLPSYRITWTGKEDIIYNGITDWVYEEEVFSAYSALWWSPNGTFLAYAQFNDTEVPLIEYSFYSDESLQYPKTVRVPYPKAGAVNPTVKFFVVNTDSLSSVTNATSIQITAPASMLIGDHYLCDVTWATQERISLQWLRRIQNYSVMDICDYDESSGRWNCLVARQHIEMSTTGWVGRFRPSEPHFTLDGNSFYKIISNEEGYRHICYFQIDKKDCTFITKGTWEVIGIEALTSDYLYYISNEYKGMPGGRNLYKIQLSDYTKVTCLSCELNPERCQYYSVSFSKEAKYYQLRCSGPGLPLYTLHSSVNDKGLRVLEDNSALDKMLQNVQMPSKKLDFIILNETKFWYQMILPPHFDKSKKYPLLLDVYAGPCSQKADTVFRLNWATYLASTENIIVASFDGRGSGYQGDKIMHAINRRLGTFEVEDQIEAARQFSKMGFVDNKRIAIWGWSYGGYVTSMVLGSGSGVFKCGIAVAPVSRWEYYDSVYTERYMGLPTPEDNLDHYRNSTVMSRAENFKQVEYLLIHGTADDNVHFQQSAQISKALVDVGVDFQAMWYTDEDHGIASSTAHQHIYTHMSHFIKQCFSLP
Compound,"DPP-IV inhibitory activity, after pre-incubation [1] [%]","DPP-IV inhibitory activity, without pre-incubation [1] [%]",IC50 [2] [µM],other results
CC(C)C[C@H](NC(=O)[C@@H]1CCCN1C(=O)[C@@H](N)CC(C)C)C(=O)N[C@@H](Cc1ccccc1)C(=O)O [LPLF] (H-LPLF-OH),41.09,52.79,464 ± 5.52,–
CC(C)C[C@H](N)C(=O)N1CCC[C@H]1C(=O)N[C@@H](CO)C(=O)N[C@@H](Cc1c[nH]c2ccccc12)C(=O)O [LPSW] (H-LPSW-OH),55.22,76.72,270 ± 15.9,–
CC(C)C[C@H](NC(=O)[C@@H]1CCCN1C(=O)[C@H](CC(C)C)NC(=O)CNC(=O)[C@@H](NC(=O)[C@@H](N)CC(C)C)C(C)C)C(=O)O [LVGLPL] (H-LVGLPL-OH),–,–,> 2000,–
CC(C)C[C@H](NC(=O)[C@H](C)NC(=O)[C@H](CC(C)C)NC(=O)CNC(=O)[C@@H]1CCCN1C(=O)[C@@H](N)C(C)C)C(=O)O [VPGLAL] (H-VPGLAL-OH),58.66,66.14,289 ± 11.9,–
CC(C)C[C@H](NC(=O)[C@H](CCC(N)=O)NC(=O)[C@H](CC(C)C)NC(=O)[C@@H](N)Cc1c[nH]c2ccccc12)C(=O)O [WLQL] (H-WLQL-OH),55.28,53.06,433 ± 40.3,–
GGPASGPAV,–,–,–,IC50 (DPP-IV; peptides from salmon gelatin): 8140 µM
ILNKEGINY,–,–,–,IC50 (DPP-IV; peptides from camel milk): 348 µM
LPLPL,–,–,–,IC50 (DPP-IV; peptides from milk): 325 µM
